{"source": "ChEMBL document CHEMBL1201862", "about": "“PubChem BioAssay data set” (2004)", "assay_in_all_cases": "NCI-60 cell line screen, 48 h", "key": {"[1]": {"tested_on": "M14"}, "[2]": {"tested_on": "HOP-92"}, "[3]": {"tested_on": "Malme-3M"}, "[4]": {"tested_on": "MCF7"}, "[5]": {"tested_on": "CAKI-1"}, "[6]": {"tested_on": "SNB-19"}, "[7]": {"tested_on": "SW-620"}, "[8]": {"tested_on": "SF-539"}, "[9]": {"tested_on": "SN12C"}, "[10]": {"tested_on": "EKVX"}, "[11]": {"tested_on": "HL-60"}, "[12]": {"tested_on": "K562"}, "[13]": {"tested_on": "HCT-116"}, "[14]": {"tested_on": "CCRF-CEM"}, "[15]": {"tested_on": "UO-31"}, "[16]": {"tested_on": "SK-OV-3"}, "[17]": {"tested_on": "SK-MEL-2"}, "[18]": {"tested_on": "U-251"}, "[19]": {"tested_on": "NCI-H226"}, "[20]": {"tested_on": "OVCAR-4"}}, "note": "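Following 48 hours of exposure in 96-well plates, responses at five concentrations were used to interpolate endpoints linearly. The concentration for 50% growth inhibition is given as GI50.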 Calls of active or inactive are those of the source. Rule as the data show it: active = GI50 up to about 1.1 µM and inactive = higher.", "data": [{"compound": "CCCN1C(=O)CN(S(=O)(=O)c2ccc(Cl)cc2)C1=O", "values": [{"measurement": "GI50", "setting": "[1]", "result": "> 100 µM (inactive)"}, {"measurement": "GI50", "setting": "[2]", "result": "> 100 µM (inactive)"}, {"measurement": "GI50", "setting": "[3]", "result": "> 100 µM (inactive)"}, {"measurement": "GI50", "setting": "[4]", "result": "> 100 µM (inactive)"}, {"measurement": "GI50", "setting": "[5]", "result": "> 100 µM (inactive)"}, {"measurement": "GI50", "setting": "[6]", "result": "> 100 µM (inactive)"}, {"measurement": "GI50", "setting": "[7]", "result": "> 100 µM (inactive)"}, {"measurement": "GI50", "setting": "[8]", "result": "> 100 µM (inactive)"}, {"measurement": "GI50", "setting": "[9]", "result": "> 100 µM (inactive)"}, {"measurement": "GI50", "setting": "[10]", "result": "> 100 µM (inactive)"}, {"measurement": "GI50", "setting": "[11]", "result": "> 100 µM (inactive)"}, {"measurement": "GI50", "setting": "[12]", "result": "> 100 µM (inactive)"}, {"measurement": "GI50", "setting": "[13]", "result": "> 100 µM (inactive)"}, {"measurement": "GI50", "setting": "[14]", "result": "> 100 µM (inactive)"}, {"measurement": "GI50", "setting": "[15]", "result": "> 100 µM (inactive)"}, {"measurement": "GI50", "setting": "[16]", "result": "> 100 µM (inactive)"}, {"measurement": "GI50", "setting": "[17]", "result": "> 100 µM (inactive)"}, {"measurement": "GI50", "setting": "[18]", "result": "> 100 µM (inactive)"}, {"measurement": "GI50", "setting": "[19]", "result": "> 100 µM (inactive)"}, {"measurement": "GI50", "setting": "[20]", "result": "> 100 µM (inactive)"}]}, {"compound": "COC(=O)C(=O)C(C(=O)C(=O)Nc1nnc(S)[nH]1)c1nc2ccc([N+](=O)[O-])cc2nc1O", "note": "(stereo not given)", "values": [{"measurement": "GI50", "setting": "[1]", "result": "> 100 µM (inactive)"}, {"measurement": "GI50", "setting": "[2]", "result": "> 100 µM (inactive)"}, {"measurement": "GI50", "setting": "[3]", "result": "> 100 µM (inactive)"}, {"measurement": "GI50", "setting": "[4]", "result": "92.7 µM (inactive)"}, {"measurement": "GI50", "setting": "[5]", "result": "> 100 µM (inactive)"}, {"measurement": "GI50", "setting": "[6]", "result": "44.7 µM (inactive)"}, {"measurement": "GI50", "setting": "[7]", "result": "> 100 µM (inactive)"}, {"measurement": "GI50", "setting": "[8]", "result": "> 100 µM (inactive)"}, {"measurement": "GI50", "setting": "[9]", "result": "> 100 µM (inactive)"}, {"measurement": "GI50", "setting": "[10]", "result": "> 100 µM (inactive)"}, {"measurement": "GI50", "setting": "[11]", "result": "> 100 µM (inactive)"}, {"measurement": "GI50", "setting": "[12]", "result": "57.8 µM (inactive)"}, {"measurement": "GI50", "setting": "[13]", "result": "> 100 µM (inactive)"}, {"measurement": "GI50", "setting": "[14]", "result": "> 100 µM (inactive)"}, {"measurement": "GI50", "setting": "[15]", "result": "82.8 µM (inactive)"}, {"measurement": "GI50", "setting": "[16]", "result": "> 100 µM (inactive)"}, {"measurement": "GI50", "setting": "[17]", "result": "> 100 µM (inactive)"}, {"measurement": "GI50", "setting": "[18]", "result": "> 100 µM (inactive)"}, {"measurement": "GI50", "setting": "[19]", "result": "> 100 µM (inactive)"}, {"measurement": "GI50", "setting": "[20]", "result": "> 100 µM (inactive)"}]}, {"compound": "O=c1c2cc(I)ccc2nc(SCc2n[nH]c(=S)o2)n1Cc1ccccc1", "values": [{"measurement": "GI50", "setting": "[1]", "result": "20.5 µM (inactive)"}, {"measurement": "GI50", "setting": "[2]", "result": "14.3 µM (inactive)"}, {"measurement": "GI50", "setting": "[3]", "result": "17.9 µM (inactive)"}, {"measurement": "GI50", "setting": "[4]", "result": "15.9 µM (inactive)"}, {"measurement": "GI50", "setting": "[5]", "result": "6.25 µM (inactive)"}, {"measurement": "GI50", "setting": "[6]", "result": "22.3 µM (inactive)"}, {"measurement": "GI50", "setting": "[7]", "result": "19.7 µM (inactive)"}, {"measurement": "GI50", "setting": "[8]", "result": "16.1 µM (inactive)"}, {"measurement": "GI50", "setting": "[9]", "result": "14.1 µM (inactive)"}, {"measurement": "GI50", "setting": "[10]", "result": "19.3 µM (inactive)"}, {"measurement": "GI50", "setting": "[11]", "result": "4.71 µM (inactive)"}, {"measurement": "GI50", "setting": "[12]", "result": "14.4 µM (inactive)"}, {"measurement": "GI50", "setting": "[13]", "result": "16 µM (inactive)"}, {"measurement": "GI50", "setting": "[14]", "result": "18.4 µM (inactive)"}, {"measurement": "GI50", "setting": "[15]", "result": "0.741 µM (active)"}, {"measurement": "GI50", "setting": "[16]", "result": "23.4 µM (inactive)"}, {"measurement": "GI50", "setting": "[17]", "result": "15.6 µM (inactive)"}, {"measurement": "GI50", "setting": "[18]", "result": "17.6 µM (inactive)"}, {"measurement": "GI50", "setting": "[19]", "result": "11.1 µM (inactive)"}, {"measurement": "GI50", "setting": "[20]", "result": "18.1 µM (inactive)"}]}, {"compound": "Cc1ccc(-c2c(C#N)c(S)n(NS(=O)(=O)c3ccccc3)c(=O)c2C#N)cc1", "values": [{"measurement": "GI50", "setting": "[1]", "result": "29.9 µM (inactive)"}, {"measurement": "GI50", "setting": "[2]", "result": "24.1 µM (inactive)"}, {"measurement": "GI50", "setting": "[3]", "result": "35.7 µM (inactive)"}, {"measurement": "GI50", "setting": "[4]", "result": "28.6 µM (inactive)"}, {"measurement": "GI50", "setting": "[5]", "result": "31.9 µM (inactive)"}, {"measurement": "GI50", "setting": "[6]", "result": "31.5 µM (inactive)"}, {"measurement": "GI50", "setting": "[7]", "result": "29 µM (inactive)"}, {"measurement": "GI50", "setting": "[8]", "result": "20.6 µM (inactive)"}, {"measurement": "GI50", "setting": "[9]", "result": "27.9 µM (inactive)"}, {"measurement": "GI50", "setting": "[10]", "result": "31 µM (inactive)"}, {"measurement": "GI50", "setting": "[11]", "result": "16.7 µM (inactive)"}, {"measurement": "GI50", "setting": "[12]", "result": "33.6 µM (inactive)"}, {"measurement": "GI50", "setting": "[13]", "result": "26.9 µM (inactive)"}, {"measurement": "GI50", "setting": "[14]", "result": "9.1 µM (inactive)"}, {"measurement": "GI50", "setting": "[15]", "result": "20.1 µM (inactive)"}, {"measurement": "GI50", "setting": "[16]", "result": "66.5 µM (inactive)"}, {"measurement": "GI50", "setting": "[17]", "result": "43.8 µM (inactive)"}, {"measurement": "GI50", "setting": "[18]", "result": "24.8 µM (inactive)"}, {"measurement": "GI50", "setting": "[19]", "result": "17.9 µM (inactive)"}, {"measurement": "GI50", "setting": "[20]", "result": "34.4 µM (inactive)"}]}, {"compound": "O=C(C(=O)N1CCc2ccccc21)c1c[nH]c2ccccc12", "values": [{"measurement": "GI50", "setting": "[1]", "result": "> 10 µM (inactive)"}, {"measurement": "GI50", "setting": "[2]", "result": "> 10 µM (inactive)"}, {"measurement": "GI50", "setting": "[3]", "result": "> 10 µM (inactive)"}, {"measurement": "GI50", "setting": "[4]", "result": "> 10 µM (inactive)"}, {"measurement": "GI50", "setting": "[5]", "result": "> 10 µM (inactive)"}, {"measurement": "GI50", "setting": "[6]", "result": "> 10 µM (inactive)"}, {"measurement": "GI50", "setting": "[7]", "result": "> 10 µM (inactive)"}, {"measurement": "GI50", "setting": "[8]", "result": "> 10 µM (inactive)"}, {"measurement": "GI50", "setting": "[9]", "result": "> 10 µM (inactive)"}, {"measurement": "GI50", "setting": "[10]", "result": "> 10 µM (inactive)"}, {"measurement": "GI50", "setting": "[11]", "result": "> 10 µM (inactive)"}, {"measurement": "GI50", "setting": "[12]", "result": "> 10 µM (inactive)"}, {"measurement": "GI50", "setting": "[13]", "result": "> 10 µM (inactive)"}, {"measurement": "GI50", "setting": "[14]", "result": "> 10 µM (inactive)"}, {"measurement": "GI50", "setting": "[15]", "result": "> 10 µM (inactive)"}, {"measurement": "GI50", "setting": "[16]", "result": "> 10 µM (inactive)"}, {"measurement": "GI50", "setting": "[17]", "result": "> 10 µM (inactive)"}, {"measurement": "GI50", "setting": "[18]", "result": "> 10 µM (inactive)"}, {"measurement": "GI50", "setting": "[19]", "result": "> 10 µM (inactive)"}, {"measurement": "GI50", "setting": "[20]", "result": "> 10 µM (inactive)"}]}]}
